From article PMC9569420 (Communications Biology, 2022)

Legend:
PLK2 = target: T1, PLK2 (Homo sapiens, UniProt Q9NYY3); assay: HotSpot kinase assay; assay type: biochemical; conditions: read-out: % Enzyme Activity (relative to DMSO controls)
T1 construct: purchased Reaction Biology Corporation

MLCK/MYLK = target: T2, MLCK/MYLK (Homo sapiens, UniProt Q15746); assay: HotSpot kinase assay; assay type: biochemical; conditions: read-out: % Enzyme Activity (relative to DMSO controls)
T2 construct: purchased Reaction Biology Corporation

JNK3 = target: T3, JNK3 (Homo sapiens, UniProt P53779); assay: HotSpot kinase assay; assay type: biochemical; conditions: read-out: % Enzyme Activity (relative to DMSO controls)
T3 construct: purchased Reaction Biology Corporation
T3 sequence (P53779 whole entry): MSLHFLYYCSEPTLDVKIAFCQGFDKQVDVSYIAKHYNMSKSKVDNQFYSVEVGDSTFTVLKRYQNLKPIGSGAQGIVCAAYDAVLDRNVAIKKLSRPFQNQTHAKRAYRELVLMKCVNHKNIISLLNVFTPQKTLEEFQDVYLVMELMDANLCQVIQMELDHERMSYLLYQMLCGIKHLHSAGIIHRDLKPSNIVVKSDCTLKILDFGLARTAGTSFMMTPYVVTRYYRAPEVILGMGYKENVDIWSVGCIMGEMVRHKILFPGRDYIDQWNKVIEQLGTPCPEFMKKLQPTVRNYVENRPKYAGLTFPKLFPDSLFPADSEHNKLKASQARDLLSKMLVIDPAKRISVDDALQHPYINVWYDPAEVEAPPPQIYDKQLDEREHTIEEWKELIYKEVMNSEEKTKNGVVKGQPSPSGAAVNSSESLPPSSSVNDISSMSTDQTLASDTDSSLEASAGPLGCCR

IGF1R = target: T4, IGF1R (Homo sapiens, UniProt P08069); assay: HotSpot kinase assay; assay type: biochemical; conditions: read-out: % Enzyme Activity (relative to DMSO controls)
T4 construct: purchased Reaction Biology Corporation
T4 sequence (P08069 31-1367): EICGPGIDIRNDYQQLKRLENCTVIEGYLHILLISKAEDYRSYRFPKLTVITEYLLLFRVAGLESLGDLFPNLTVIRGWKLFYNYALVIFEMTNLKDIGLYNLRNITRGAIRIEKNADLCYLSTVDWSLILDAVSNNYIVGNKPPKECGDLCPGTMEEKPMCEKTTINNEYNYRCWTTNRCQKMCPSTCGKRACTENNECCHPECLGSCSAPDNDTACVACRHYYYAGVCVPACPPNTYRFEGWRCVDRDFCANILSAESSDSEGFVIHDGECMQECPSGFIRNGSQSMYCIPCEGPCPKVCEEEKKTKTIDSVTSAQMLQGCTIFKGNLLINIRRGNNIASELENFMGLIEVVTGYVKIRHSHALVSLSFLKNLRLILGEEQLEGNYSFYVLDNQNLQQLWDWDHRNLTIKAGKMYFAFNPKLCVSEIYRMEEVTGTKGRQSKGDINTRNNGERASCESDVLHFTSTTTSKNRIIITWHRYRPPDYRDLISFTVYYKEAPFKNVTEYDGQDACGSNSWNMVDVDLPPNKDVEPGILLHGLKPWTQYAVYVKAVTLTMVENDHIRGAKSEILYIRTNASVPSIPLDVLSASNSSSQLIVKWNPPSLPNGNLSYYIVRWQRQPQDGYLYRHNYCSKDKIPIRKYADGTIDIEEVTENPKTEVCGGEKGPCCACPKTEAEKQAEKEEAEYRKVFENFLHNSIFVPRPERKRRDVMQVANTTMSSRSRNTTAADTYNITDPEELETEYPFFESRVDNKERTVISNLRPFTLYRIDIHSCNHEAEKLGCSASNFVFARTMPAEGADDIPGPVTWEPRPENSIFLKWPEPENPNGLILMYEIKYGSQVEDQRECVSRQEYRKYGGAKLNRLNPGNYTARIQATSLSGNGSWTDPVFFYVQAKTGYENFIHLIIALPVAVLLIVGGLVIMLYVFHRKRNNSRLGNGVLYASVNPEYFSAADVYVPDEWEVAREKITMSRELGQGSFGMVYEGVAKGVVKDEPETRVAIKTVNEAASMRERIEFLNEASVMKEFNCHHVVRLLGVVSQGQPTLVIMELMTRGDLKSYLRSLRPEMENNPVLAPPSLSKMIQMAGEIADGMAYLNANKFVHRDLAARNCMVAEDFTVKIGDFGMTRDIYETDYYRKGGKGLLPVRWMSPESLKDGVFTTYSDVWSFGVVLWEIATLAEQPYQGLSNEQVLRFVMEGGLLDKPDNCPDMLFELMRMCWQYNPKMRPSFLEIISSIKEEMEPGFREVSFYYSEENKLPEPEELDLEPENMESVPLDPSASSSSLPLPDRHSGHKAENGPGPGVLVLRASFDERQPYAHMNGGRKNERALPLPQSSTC

KHS/MAP4K5 = target: T5, KHS/MAP4K5 (Homo sapiens, UniProt Q9Y4K4); assay: HotSpot kinase assay; assay type: biochemical; conditions: read-out: % Enzyme Activity (relative to DMSO controls)
T5 construct: purchased Reaction Biology Corporation

IRR/INSRR = target: T6, IRR/INSRR (Homo sapiens, UniProt P14616); assay: HotSpot kinase assay; assay type: biochemical; conditions: read-out: % Enzyme Activity (relative to DMSO controls)
T6 construct: purchased Reaction Biology Corporation

CK1g2 = target: T7, CK1g2 (Homo sapiens, UniProt P78368); assay: HotSpot kinase assay; assay type: biochemical; conditions: read-out: % Enzyme Activity (relative to DMSO controls)
T7 construct: purchased Reaction Biology Corporation
T7 sequence (P78368 whole entry): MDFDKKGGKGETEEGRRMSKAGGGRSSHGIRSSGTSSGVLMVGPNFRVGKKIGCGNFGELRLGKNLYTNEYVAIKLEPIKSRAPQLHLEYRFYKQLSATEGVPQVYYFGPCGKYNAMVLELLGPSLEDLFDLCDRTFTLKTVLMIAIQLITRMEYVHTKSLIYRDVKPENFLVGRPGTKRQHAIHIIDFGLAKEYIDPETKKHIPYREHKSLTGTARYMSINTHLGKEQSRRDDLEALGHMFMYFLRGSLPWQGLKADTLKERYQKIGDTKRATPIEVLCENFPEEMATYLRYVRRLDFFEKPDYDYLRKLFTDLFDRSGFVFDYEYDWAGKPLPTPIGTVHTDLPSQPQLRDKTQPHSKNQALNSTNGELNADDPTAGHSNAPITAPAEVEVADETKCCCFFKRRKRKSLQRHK

ULK3 = target: T8, ULK3 (Homo sapiens, UniProt Q6PHR2); assay: HotSpot kinase assay; assay type: biochemical; conditions: read-out: % Enzyme Activity (relative to DMSO controls)
T8 construct: purchased Reaction Biology Corporation

DCAMKL1 = target: T9, DCAMKL1 (Homo sapiens, UniProt O15075); assay: HotSpot kinase assay; assay type: biochemical; conditions: read-out: % Enzyme Activity (relative to DMSO controls)
T9 construct: purchased Reaction Biology Corporation

TXK = target: T10, TXK (Homo sapiens, UniProt P42681); assay: HotSpot kinase assay; assay type: biochemical; conditions: read-out: % Enzyme Activity (relative to DMSO controls)
T10 construct: purchased Reaction Biology Corporation

HCK = target: T11, HCK (Homo sapiens, UniProt P08631); assay: HotSpot kinase assay; assay type: biochemical; conditions: read-out: % Enzyme Activity (relative to DMSO controls)
T11 construct: purchased Reaction Biology Corporation
T11 sequence (P08631 whole entry): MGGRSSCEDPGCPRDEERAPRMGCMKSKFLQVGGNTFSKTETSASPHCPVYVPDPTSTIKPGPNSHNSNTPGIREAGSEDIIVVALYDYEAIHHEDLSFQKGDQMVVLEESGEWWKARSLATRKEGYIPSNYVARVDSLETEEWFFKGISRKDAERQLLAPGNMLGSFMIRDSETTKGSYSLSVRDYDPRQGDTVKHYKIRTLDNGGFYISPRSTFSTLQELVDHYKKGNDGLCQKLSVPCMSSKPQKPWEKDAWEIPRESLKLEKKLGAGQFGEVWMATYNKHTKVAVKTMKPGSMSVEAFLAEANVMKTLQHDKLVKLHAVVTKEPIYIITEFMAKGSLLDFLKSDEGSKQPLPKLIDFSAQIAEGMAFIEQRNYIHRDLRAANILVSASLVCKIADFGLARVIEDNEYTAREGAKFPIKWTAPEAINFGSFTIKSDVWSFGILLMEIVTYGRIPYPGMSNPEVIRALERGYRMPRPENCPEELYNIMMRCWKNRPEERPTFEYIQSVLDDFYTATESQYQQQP

TBK1 = target: T12, TBK1 (Homo sapiens, UniProt Q9UHD2); assay: HotSpot kinase assay; assay type: biochemical; conditions: read-out: % Enzyme Activity (relative to DMSO controls)
T12 construct: purchased Reaction Biology Corporation

ALK5/TGFBR1 = target: T13, ALK5/TGFBR1 (Homo sapiens, UniProt P36897); assay: HotSpot kinase assay; assay type: biochemical; conditions: read-out: % Enzyme Activity (relative to DMSO controls)
T13 construct: purchased Reaction Biology Corporation

PKCnu/PRKD3 = target: T14, PKCnu/PRKD3 (Homo sapiens, UniProt O94806); assay: HotSpot kinase assay; assay type: biochemical; conditions: read-out: % Enzyme Activity (relative to DMSO controls)
T14 construct: purchased Reaction Biology Corporation

DYRK1B = target: T15, DYRK1B (Homo sapiens, UniProt Q9Y463); assay: HotSpot kinase assay; assay type: biochemical; conditions: read-out: % Enzyme Activity (relative to DMSO controls)
T15 construct: purchased Reaction Biology Corporation

SGK3/SGKL = target: T16, SGK3/SGKL (Homo sapiens, UniProt Q96BR1); assay: HotSpot kinase assay; assay type: biochemical; conditions: read-out: % Enzyme Activity (relative to DMSO controls)
T16 construct: purchased Reaction Biology Corporation
T16 sequence (Q96BR1 whole entry): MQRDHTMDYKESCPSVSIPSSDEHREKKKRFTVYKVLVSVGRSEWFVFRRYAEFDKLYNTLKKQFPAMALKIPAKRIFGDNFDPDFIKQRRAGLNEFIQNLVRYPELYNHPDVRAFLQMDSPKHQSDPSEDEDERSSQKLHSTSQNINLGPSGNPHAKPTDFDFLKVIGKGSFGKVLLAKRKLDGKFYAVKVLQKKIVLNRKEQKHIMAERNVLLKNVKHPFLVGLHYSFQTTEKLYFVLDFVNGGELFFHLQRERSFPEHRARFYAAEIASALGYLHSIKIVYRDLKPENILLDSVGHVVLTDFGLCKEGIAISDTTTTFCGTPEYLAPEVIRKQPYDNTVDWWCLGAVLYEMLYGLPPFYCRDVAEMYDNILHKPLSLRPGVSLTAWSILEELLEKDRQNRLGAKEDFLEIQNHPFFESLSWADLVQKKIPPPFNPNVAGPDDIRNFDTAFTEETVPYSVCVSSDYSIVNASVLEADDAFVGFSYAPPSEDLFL

CHK1 = target: T17, CHK1 (Homo sapiens, UniProt O14757); assay: HotSpot kinase assay; assay type: biochemical; conditions: read-out: % Enzyme Activity (relative to DMSO controls)
T17 construct: purchased Reaction Biology Corporation

PAK1 = target: T18, PAK1 (Homo sapiens, UniProt Q13153); assay: HotSpot kinase assay; assay type: biochemical; conditions: read-out: % Enzyme Activity (relative to DMSO controls)
T18 construct: purchased Reaction Biology Corporation
T18 sequence (Q13153 whole entry): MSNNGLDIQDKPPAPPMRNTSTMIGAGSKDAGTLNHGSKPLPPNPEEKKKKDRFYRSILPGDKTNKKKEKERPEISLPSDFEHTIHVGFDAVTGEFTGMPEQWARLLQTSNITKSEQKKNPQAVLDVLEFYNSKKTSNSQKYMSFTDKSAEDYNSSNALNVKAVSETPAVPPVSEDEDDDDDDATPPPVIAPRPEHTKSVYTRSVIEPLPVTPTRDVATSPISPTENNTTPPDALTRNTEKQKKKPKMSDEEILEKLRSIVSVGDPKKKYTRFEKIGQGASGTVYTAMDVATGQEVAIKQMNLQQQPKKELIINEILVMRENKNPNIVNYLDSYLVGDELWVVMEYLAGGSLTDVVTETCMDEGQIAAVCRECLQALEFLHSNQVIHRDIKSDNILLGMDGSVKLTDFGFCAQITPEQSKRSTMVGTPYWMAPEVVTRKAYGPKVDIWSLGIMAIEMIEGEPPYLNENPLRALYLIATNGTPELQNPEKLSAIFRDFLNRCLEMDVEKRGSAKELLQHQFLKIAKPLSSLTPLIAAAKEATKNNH

[1] = cell proliferation and viability, ~50% confluent; conditions: human, cell proliferation and viability, odu as a percentage of the DMSO control, 120 h (Fig 1d source data)
[2] = tested on: Primary vaginal epithelial cells; assay: cell proliferation and viability, ~50% confluent; conditions: for cell proliferation and viability, odu as a percentage of the DMSO control: 120 h (Fig 1d source data)
MAPKAPK3 = target: T19, MAPKAPK3 (Homo sapiens, UniProt Q16644); assay: HotSpot kinase assay; assay type: biochemical; conditions: read-out: % Enzyme Activity (relative to DMSO controls)
T19 construct: purchased Reaction Biology Corporation

TSSK3/STK22C = target: T20, TSSK3/STK22C (Homo sapiens, UniProt Q96PN8); assay: HotSpot kinase assay; assay type: biochemical; conditions: read-out: % Enzyme Activity (relative to DMSO controls)
T20 construct: purchased Reaction Biology Corporation
T20 sequence (Q96PN8 whole entry): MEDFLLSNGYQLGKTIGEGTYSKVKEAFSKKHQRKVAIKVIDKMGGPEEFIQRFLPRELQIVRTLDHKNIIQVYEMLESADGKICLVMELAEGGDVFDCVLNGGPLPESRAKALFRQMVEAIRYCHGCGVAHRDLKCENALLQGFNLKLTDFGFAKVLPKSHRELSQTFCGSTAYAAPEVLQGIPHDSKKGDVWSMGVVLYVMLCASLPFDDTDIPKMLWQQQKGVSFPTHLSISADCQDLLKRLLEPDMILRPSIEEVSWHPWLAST

CK1g1 = target: T21, CK1g1 (Homo sapiens, UniProt Q9HCP0); assay: HotSpot kinase assay; assay type: biochemical; conditions: read-out: % Enzyme Activity (relative to DMSO controls)
T21 construct: purchased Reaction Biology Corporation

CSK = target: T22, CSK (Homo sapiens, UniProt P41240); assay: HotSpot kinase assay; assay type: biochemical; conditions: read-out: % Enzyme Activity (relative to DMSO controls)
T22 construct: purchased Reaction Biology Corporation

CDK2/CYCLIN E = target: T23, CDK2/CYCLIN E (Homo sapiens, UniProt P24941); assay: HotSpot kinase assay; assay type: biochemical; conditions: read-out: % Enzyme Activity (relative to DMSO controls)
T23 construct: purchased Reaction Biology Corporation

ERN2/IRE2 = target: T24, ERN2/IRE2 (Homo sapiens, UniProt Q76MJ5); assay: HotSpot kinase assay; assay type: biochemical; conditions: read-out: % Enzyme Activity (relative to DMSO controls)
T24 construct: purchased Reaction Biology Corporation

FLT4/VEGFR3 = target: T25, FLT4/VEGFR3 (Homo sapiens, UniProt P35916); assay: HotSpot kinase assay; assay type: biochemical; conditions: read-out: % Enzyme Activity (relative to DMSO controls)
T25 construct: purchased Reaction Biology Corporation

BRSK1 = target: T26, BRSK1 (Homo sapiens, UniProt Q8TDC3); assay: HotSpot kinase assay; assay type: biochemical; conditions: read-out: % Enzyme Activity (relative to DMSO controls)
T26 construct: purchased Reaction Biology Corporation

ARK5/NUAK1 = target: T27, ARK5/NUAK1 (Homo sapiens, UniProt O60285); assay: HotSpot kinase assay; assay type: biochemical; conditions: read-out: % Enzyme Activity (relative to DMSO controls)
T27 construct: purchased Reaction Biology Corporation

SGK1 = target: T28, SGK1 (Homo sapiens, UniProt O00141); assay: HotSpot kinase assay; assay type: biochemical; conditions: read-out: % Enzyme Activity (relative to DMSO controls)
T28 construct: purchased Reaction Biology Corporation

PHKg2 = target: T29, PHKg2 (Homo sapiens, UniProt P15735); assay: HotSpot kinase assay; assay type: biochemical; conditions: read-out: % Enzyme Activity (relative to DMSO controls)
T29 construct: purchased Reaction Biology Corporation
T29 sequence (P15735 whole entry): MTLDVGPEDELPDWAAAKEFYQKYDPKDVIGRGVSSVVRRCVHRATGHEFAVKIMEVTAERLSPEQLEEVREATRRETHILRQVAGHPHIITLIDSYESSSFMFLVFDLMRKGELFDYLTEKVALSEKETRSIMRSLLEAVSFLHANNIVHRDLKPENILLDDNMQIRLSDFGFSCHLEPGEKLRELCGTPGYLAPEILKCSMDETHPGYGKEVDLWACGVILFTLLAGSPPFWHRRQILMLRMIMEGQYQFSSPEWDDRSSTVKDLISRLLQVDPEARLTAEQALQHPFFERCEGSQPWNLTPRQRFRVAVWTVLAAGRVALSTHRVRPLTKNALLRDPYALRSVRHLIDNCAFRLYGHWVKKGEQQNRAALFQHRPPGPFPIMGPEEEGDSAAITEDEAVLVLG

PLSCR1 = PLSCR1 phosphorylation (IP/western), HSV-2 infected HaCaT cells; assay type: cell-based, human; conditions: 10 μM, 30 min
PLK4/SAK = target: T30, PLK4/SAK (Homo sapiens, UniProt O00444); assay: HotSpot kinase assay; assay type: biochemical; conditions: read-out: % Enzyme Activity (relative to DMSO controls)
T30 construct: purchased Reaction Biology Corporation

PKN2/PRK2 = target: T31, PKN2/PRK2 (Homo sapiens, UniProt Q16513); assay: HotSpot kinase assay; assay type: biochemical; conditions: read-out: % Enzyme Activity (relative to DMSO controls)
T31 construct: purchased Reaction Biology Corporation

CDK6/cyclin D3 = target: T32, CDK6/cyclin D3 (Homo sapiens, UniProt Q00534); assay: HotSpot kinase assay; assay type: biochemical; conditions: read-out: % Enzyme Activity (relative to DMSO controls)
T32 construct: purchased Reaction Biology Corporation

STK38L/NDR2 = target: T33, STK38L/NDR2 (Homo sapiens, UniProt Q9Y2H1); assay: HotSpot kinase assay; assay type: biochemical; conditions: read-out: % Enzyme Activity (relative to DMSO controls)
T33 construct: purchased Reaction Biology Corporation
T33 sequence (Q9Y2H1 whole entry): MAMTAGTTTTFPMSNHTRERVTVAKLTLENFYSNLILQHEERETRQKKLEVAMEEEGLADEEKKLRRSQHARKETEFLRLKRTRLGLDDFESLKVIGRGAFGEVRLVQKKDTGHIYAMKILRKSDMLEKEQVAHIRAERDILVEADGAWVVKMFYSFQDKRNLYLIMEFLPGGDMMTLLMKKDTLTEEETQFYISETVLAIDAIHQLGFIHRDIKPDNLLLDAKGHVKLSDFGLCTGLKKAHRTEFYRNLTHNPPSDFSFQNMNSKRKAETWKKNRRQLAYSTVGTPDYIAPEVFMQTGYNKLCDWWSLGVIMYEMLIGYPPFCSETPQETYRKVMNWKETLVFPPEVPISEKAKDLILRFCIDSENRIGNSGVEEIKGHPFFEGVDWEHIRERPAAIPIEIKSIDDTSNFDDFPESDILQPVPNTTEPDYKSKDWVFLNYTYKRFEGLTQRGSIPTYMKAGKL

SLK/STK2 = target: T34, SLK/STK2 (Homo sapiens, UniProt Q9H2G2); assay: HotSpot kinase assay; assay type: biochemical; conditions: read-out: % Enzyme Activity (relative to DMSO controls)
T34 construct: purchased Reaction Biology Corporation

EPHA3 = target: T35, EPHA3 (Homo sapiens, UniProt P29320); assay: HotSpot kinase assay; assay type: biochemical; conditions: read-out: % Enzyme Activity (relative to DMSO controls)
T35 construct: purchased Reaction Biology Corporation

RSK3 = target: T36, RSK3 (Homo sapiens, UniProt Q15349); assay: HotSpot kinase assay; assay type: biochemical; conditions: read-out: % Enzyme Activity (relative to DMSO controls)
T36 construct: purchased Reaction Biology Corporation

JAK2 = target: T37, JAK2 (Homo sapiens, UniProt O60674); assay: HotSpot kinase assay; assay type: biochemical; conditions: read-out: % Enzyme Activity (relative to DMSO controls)
T37 construct: purchased Reaction Biology Corporation

CAMK4 = target: T38, CAMK4 (Homo sapiens, UniProt Q16566); assay: HotSpot kinase assay; assay type: biochemical; conditions: read-out: % Enzyme Activity (relative to DMSO controls)
T38 construct: purchased Reaction Biology Corporation

Aurora B = target: T39, Aurora B (Homo sapiens, UniProt Q96GD4); assay: HotSpot kinase assay; assay type: biochemical; conditions: read-out: % Enzyme Activity (relative to DMSO controls)
T39 construct: purchased Reaction Biology Corporation

Structure (SMILES): CO[C@@H]1[C@H](N(C)C(=O)CCC(=O)NCc2cn(CCCS(=O)(=O)O)nn2)C[C@H]2O[C@]1(C)n1c3ccccc3c3c4c(c5c6ccccc6n2c5c31)C(=O)NC4 [CIMSS]
- remaining activity at 10 µM (PLK2): 27.4%
- remaining activity at 10 µM (MLCK/MYLK): 15.5%
- remaining activity at 10 µM (JNK3): 23.6%
- remaining activity at 10 µM (IGF1R): 6.72%
- remaining activity at 10 µM (KHS/MAP4K5): 5.19%
- remaining activity at 10 µM (IRR/INSRR): 4.68%
- remaining activity at 10 µM (CK1g2): 98.5%
- remaining activity at 10 µM (ULK3): 14.2%
- remaining activity at 10 µM (DCAMKL1): 83.7%
- remaining activity at 10 µM (TXK): 3.64%
- remaining activity at 10 µM (HCK): 7.23%
- remaining activity at 10 µM (TBK1): 2.01%
- remaining activity at 10 µM (ALK5/TGFBR1): 86.6%
- remaining activity at 10 µM (PKCnu/PRKD3): 11.4%
- remaining activity at 10 µM (DYRK1B): 0.41%
- remaining activity at 10 µM (SGK3/SGKL): 59.6%
- remaining activity at 10 µM (CHK1): 4.66%
- remaining activity at 10 µM (PAK1): 8.08%
- viability at 120 h, 10 µM ([1]; 10 μM): 102%
- viability at 120 h, 50 µM ([1]; 50 μM): 93%
- cell proliferation and viability, odu as a percentage of the DMSO control ([2]; 10 μM): 99.5%
- cell proliferation and viability, odu as a percentage of the DMSO control ([2]; 50 μM): 91.8%
- cytotoxicity ([2]; 10 or 50 μM, up to 120 h): little or no cytotoxicity
- remaining activity at 10 µM (MAPKAPK3): 87.5%
- remaining activity at 10 µM (TSSK3/STK22C): 62.2%
- remaining activity at 10 µM (CK1g1): 95.9%
- remaining activity at 10 µM (CSK): 2.41%
- remaining activity at 10 µM (CDK2/CYCLIN E): 7.89%
- remaining activity at 10 µM (ERN2/IRE2): 6.47%
- remaining activity at 10 µM (FLT4/VEGFR3): 1.97%
- remaining activity at 10 µM (BRSK1): 1.55%
- remaining activity at 10 µM (ARK5/NUAK1): 1.83%
- remaining activity at 10 µM (SGK1): 13.4%
- remaining activity at 10 µM (PHKg2): 18.4%
- Phosphorylation of PLSCR1 (PLSCR1): not
- remaining activity at 10 µM (PLK4/SAK): 6.73%
- remaining activity at 10 µM (PKN2/PRK2): 6.62%
- remaining activity at 10 µM (CDK6/cyclin D3): 56.8%
- remaining activity at 10 µM (STK38L/NDR2): 22.7%
- remaining activity at 10 µM (SLK/STK2): 6.42%
- remaining activity at 10 µM (EPHA3): 37.9%
- remaining activity at 10 µM (RSK3): 3.38%
- remaining activity at 10 µM (JAK2): 1.13%
- remaining activity at 10 µM (CAMK4): 66.6%
- remaining activity at 10 µM (Aurora B): 2.85%
